According to PubChem BioAssay AID330 (DTP/NCI, 2004):
“And” between values parts separate entries of the source, which are not always exact repeats. Equal values may be shown once. Toxic doses and inconclusive results are not listed. The calls were made as follows: active = survival T/C of 150% or more; inactive = T/C below 125% in these data.

Test system: P388 leukemia ip, CD2F1 mice, survival T/C
Assay: NCI In Vivo Anticancer Drug Screen. Data for tumor model P388 Leukemia (intraperitoneal) in CD2F1 (CDF1) mice
Conditions: endpoint: median survival time, higher = longer survival
Summary of the method: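 Mice carrying the transplanted tumor received test compound or vehicle. Survival was recorded in each group, and the value is the treated-group measurement divided by that of the vehicle-treated control group.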

[1] = dose: 50.0 mg/kg/injection, schedule: Q01DX005 (ip), vehicle: saline
[2] = dose: 50.0 mg/kg/injection, schedule: Q01DX009 (ip), vehicle: saline with Tween-80
[3] = dose: 50.0 mg/kg/injection, schedule: Q01DX009 (ip), vehicle: Klucel (hydroxypropylcellulose) (HPC)
[4] = dose: 100.0 mg/kg/injection, schedule: Q01DX009 (ip), vehicle: Klucel (hydroxypropylcellulose) (HPC)
[5] = dose: 50.0 mg/kg/injection, schedule: Q01DX005 (ip), vehicle: saline with Tween-80

Measured: T/C

O=C1C(=Nc2ccccc2)Cc2ccccc21
inactive: dose: 100.0 mg/kg/injection, schedule: Q04DX003 (ip), vehicle: saline with Tween-80 100 % of control | dose: 200.0 mg/kg/injection, schedule: Q04DX003 (ip), vehicle: saline with Tween-80 96 % of control | dose: 400.0 mg/kg/injection, schedule: Q04DX003 (ip), vehicle: saline with Tween-80 100 % of control

OC(CC1CCCCN1)c1ccccc1 (stereo not given)
inactive: dose: 12.5 mg/kg/injection, schedule: Q01DX005 (ip), vehicle: saline 98 % of control | dose: 12.5 mg/kg/injection, schedule: Q01DX009 (ip), vehicle: saline with Tween-80 107 % of control | dose: 25.0 mg/kg/injection, schedule: Q01DX005 (ip), vehicle: saline 105 % of control | dose: 25.0 mg/kg/injection, schedule: Q01DX009 (ip), vehicle: saline with Tween-80 101 % of control | [1] 115 % of control | [2] 100 % of control and 102 % of control

CSC(=S)n1nc(-c2ccccc2)c(N=Nc2ccc(Br)cc2)c1C
inactive: dose: 100.0 mg/kg/injection, schedule: Q04DX002 (ip), vehicle: Klucel (hydroxypropylcellulose) (HPC) 98 % of control | dose: 200.0 mg/kg/injection, schedule: Q04DX002 (ip), vehicle: Klucel (hydroxypropylcellulose) (HPC) 100 % of control | dose: 400.0 mg/kg/injection, schedule: Q04DX002 (ip), vehicle: Klucel (hydroxypropylcellulose) (HPC) 94 % of control

Cn1c(N2CCN(CCO)CC2)nc2c1c(=O)n(CC(O)CN1CCN(CCO)CC1)c(=O)n2C (stereo not given)
inactive: [3] 89 % of control | [4] 97 % of control | dose: 200.0 mg/kg/injection, schedule: Q01DX009 (ip), vehicle: Klucel (hydroxypropylcellulose) (HPC) 107 % of control

O=S(=O)(O)O.[Co+3].[Co+3].[NH2-].[NH2-].[NH2-].[NH2-].[NH2-].[NH2-].[NH2-].[NH2-].[NH2-].[NH2-].[O-][O-]
inactive: dose: 25.0 mg/kg/injection, schedule: Q01DX009 (ip), vehicle: saline 96 % of control

O=c1n(-c2ccccc2)c(=O)n2n1C1CC3c4ccccc4C1C2C31CC1 (stereo not given)
inactive: [5] 104 % of control | dose: 100.0 mg/kg/injection, schedule: Q01DX005 (ip), vehicle: saline with Tween-80 101 % of control | dose: 200.0 mg/kg/injection, schedule: Q01DX005 (ip), vehicle: saline with Tween-80 92 % of control

C/C(=N\NC(=S)N1CCCC1)c1nccs1
inactive: dose: 12.5 mg/kg/injection, schedule: Q01DX005 (ip), vehicle: saline with Tween-80 109 % of control | dose: 25.0 mg/kg/injection, schedule: Q01DX005 (ip), vehicle: saline with Tween-80 104 % of control | [5] 108 % of control and 114 % of control

Cc1ccc(S(=O)(=O)OC2CN(S(=O)(=O)c3ccc(C)cc3)C2)cc1
inactive: dose: 50.0 mg/kg/injection, schedule: Q01DX005 (ip), vehicle: Klucel (hydroxypropylcellulose) (HPC) 100 % of control | dose: 100.0 mg/kg/injection, schedule: Q01DX005 (ip), vehicle: Klucel (hydroxypropylcellulose) (HPC) 91 % of control | dose: 200.0 mg/kg/injection, schedule: Q01DX005 (ip), vehicle: Klucel (hydroxypropylcellulose) (HPC) 90 % of control

NS(=O)(=O)c1cc2c(cc1Cl)NC=NS2(=O)=O
inactive: dose: 18.75 mg/kg/injection, schedule: Q01DX009 (ip), vehicle: Klucel (hydroxypropylcellulose) (HPC) 100 % of control and 103 % of control | dose: 37.5 mg/kg/injection, schedule: Q01DX009 (ip), vehicle: Klucel (hydroxypropylcellulose) (HPC) 104 % of control and 91 % of control | dose: 75.0 mg/kg/injection, schedule: Q01DX009 (ip), vehicle: Klucel (hydroxypropylcellulose) (HPC) 104 % of control and 89 % of control | dose: 150.0 mg/kg/injection, schedule: Q01DX009 (ip), vehicle: Klucel (hydroxypropylcellulose) (HPC) 104 % of control and 90 % of control | dose: 225.0 mg/kg/injection, schedule: Q01DX009 (ip), vehicle: Klucel (hydroxypropylcellulose) (HPC) 99 % of control and 100 % of control

CC12CC(CC1=O)CC2S(=O)(=O)O (stereo not given)
inactive: dose: 100.0 mg/kg/injection, schedule: Q01DX001 (ip), vehicle: saline with Tween-80 96 % of control | dose: 200.0 mg/kg/injection, schedule: Q01DX001 (ip), vehicle: saline with Tween-80 102 % of control

Cn1ncc2c(N(CCO)CCO)ncnc21
inactive: [1] 100 % of control | dose: 100.0 mg/kg/injection, schedule: Q01DX005 (ip), vehicle: saline 100 % of control | dose: 200.0 mg/kg/injection, schedule: Q01DX005 (ip), vehicle: saline 95 % of control

OCC1C=Cc2ccccc21 (stereo not given)
inactive: dose: 50.0 mg/kg/injection, schedule: Q01DX009 (ip), vehicle: saline 109 % of control | dose: 100.0 mg/kg/injection, schedule: Q01DX009 (ip), vehicle: saline 107 % of control | dose: 200.0 mg/kg/injection, schedule: Q01DX009 (ip), vehicle: saline 114 % of control

O=c1[nH]c2cc([N+](=O)[O-])ccc2nc1/C=C(\O)c1ccc(F)cc1
inactive: dose: 60.0 mg/kg/injection, schedule: Q01DX005 (ip), vehicle: Klucel + Tween-80 102 % of control | dose: 120.0 mg/kg/injection, schedule: Q01DX005 (ip), vehicle: Klucel + Tween-80 86 % of control

Cc1ccc(-c2nc3ccccc3c(=O)n2/N=C/c2ccccc2O)cc1
inactive: [2] 101 % of control | dose: 100.0 mg/kg/injection, schedule: Q01DX009 (ip), vehicle: saline with Tween-80 100 % of control | dose: 200.0 mg/kg/injection, schedule: Q01DX009 (ip), vehicle: saline with Tween-80 93 % of control

CNc1ncnc2ccc(Cl)cc12
inactive: [3] 93 % of control | [4] 102 % of control
